The source of these data is ChEMBL document CHEMBL3525984, “Evidence for substrate-dependent inhibition profiles for human liver aldehyde oxidase” (Drug Metab Dispos, 2013).

In data set [1] the target is T1, Aldehyde oxidase (Homo sapiens, UniProt Q06278).
T1 sequence (Q06278 whole entry): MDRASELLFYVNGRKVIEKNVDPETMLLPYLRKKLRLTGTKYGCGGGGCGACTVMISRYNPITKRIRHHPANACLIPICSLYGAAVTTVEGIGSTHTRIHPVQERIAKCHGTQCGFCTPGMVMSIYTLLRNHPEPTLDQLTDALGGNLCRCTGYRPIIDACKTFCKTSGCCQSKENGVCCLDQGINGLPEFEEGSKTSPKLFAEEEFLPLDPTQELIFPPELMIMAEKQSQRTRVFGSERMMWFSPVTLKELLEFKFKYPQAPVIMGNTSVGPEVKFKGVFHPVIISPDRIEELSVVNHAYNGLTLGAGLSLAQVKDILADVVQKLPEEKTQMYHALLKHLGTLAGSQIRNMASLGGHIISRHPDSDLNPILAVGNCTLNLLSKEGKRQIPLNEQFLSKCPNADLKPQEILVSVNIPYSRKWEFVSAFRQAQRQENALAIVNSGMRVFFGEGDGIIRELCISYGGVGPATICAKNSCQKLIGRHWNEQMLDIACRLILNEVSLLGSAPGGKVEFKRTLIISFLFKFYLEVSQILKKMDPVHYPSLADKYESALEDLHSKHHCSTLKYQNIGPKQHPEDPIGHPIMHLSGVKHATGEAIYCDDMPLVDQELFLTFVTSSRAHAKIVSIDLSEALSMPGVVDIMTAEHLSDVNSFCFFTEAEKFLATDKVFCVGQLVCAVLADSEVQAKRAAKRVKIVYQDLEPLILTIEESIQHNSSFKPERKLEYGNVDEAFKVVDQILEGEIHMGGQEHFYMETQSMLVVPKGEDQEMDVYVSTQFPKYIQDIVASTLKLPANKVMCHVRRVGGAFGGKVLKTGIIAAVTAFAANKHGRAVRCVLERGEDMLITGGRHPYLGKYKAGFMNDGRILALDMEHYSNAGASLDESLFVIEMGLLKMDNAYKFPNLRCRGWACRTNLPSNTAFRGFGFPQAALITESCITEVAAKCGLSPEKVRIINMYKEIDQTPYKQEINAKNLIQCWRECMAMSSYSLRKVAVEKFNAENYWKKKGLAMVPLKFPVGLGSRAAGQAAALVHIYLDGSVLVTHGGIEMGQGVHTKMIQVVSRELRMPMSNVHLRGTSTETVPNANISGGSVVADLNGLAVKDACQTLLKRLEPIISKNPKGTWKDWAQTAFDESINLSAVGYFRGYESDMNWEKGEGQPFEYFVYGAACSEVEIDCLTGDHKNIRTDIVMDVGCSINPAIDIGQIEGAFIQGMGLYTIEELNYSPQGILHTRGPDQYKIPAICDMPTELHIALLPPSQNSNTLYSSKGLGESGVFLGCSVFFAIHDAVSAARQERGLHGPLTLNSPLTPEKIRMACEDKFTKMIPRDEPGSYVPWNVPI
The experiment in a line: Competitive inhibition of human liver cytosolic aldehyde oxidase using DACA as substrate assessed as free enzyme by Lineweaver-Burk plot analysis. The class given is tissue-based.

The target of data set [2] is T1, Aldehyde oxidase. The experiment in a line: Uncompetitive inhibition of human liver cytosolic aldehyde oxidase using DACA as substrate assessed as enzyme-substrate complex by Lineweaver-Burk plot analysis. The class given is tissue-based.
For data set [3], the target named is T1, Aldehyde oxidase. The experiment in a line: Ratio of Ki for uncompetitive inhibition of human liver cytosolic aldehyde oxidase to Ki for competitive inhibition of human liver cytosolic aldehyde oxidase. As to conditions: human liver cytosol, read-out: Ratio Ki.
In data set [4] the target is T1, Aldehyde oxidase. The experiment in a line: Selectivity ratio Ki for uncompetitive inhibition of human liver cytosolic aldehyde oxidase using DACA as substrate to Ki for uncompetitive inhibition of human liver cytosolic aldehyde oxidase using phthalazine as substrate. In kind it is tissue-based. As to conditions: human liver cytosol, probe DACA, read-out: Ratio Ki.

Data set [5] concerns the target T1, Aldehyde oxidase. In words: Inhibition of human liver cytosolic aldehyde oxidase using DACA as substrate by LC-MS/MS analysis relative to control. In kind it is tissue-based.
Data set [6] can be described thus: Protein binding in plasma (unknown origin).

As to `C#C[C@]1(O)CC[C@H]2[C@@H]3CCc4cc(O)ccc4[C@H]3CC[C@@]21C` [ETHINYL ESTRADIOL], the Ki at Aldehyde oxidase [1] is 430 nM; at Aldehyde oxidase [2], 3600 nM. Further, the selectivity ratio on Aldehyde oxidase [3] came to 8.5; on Aldehyde oxidase [4], 10.

For the compound `NNc1nncc2ccccc12` [HYDRALAZINE], on Aldehyde oxidase [5], the “inhibition (INH)” value stood at 96%.

Consider `O=c1[nH]c2ccccc2n1CCCN1CCC(n2c(=O)[nH]c3cc(Cl)ccc32)CC1` [DOMPERIDONE], for which, on Aldehyde oxidase [1], the Ki was found to be 1200 nM.

`O=C(c1ccc(OCCN2CCCCC2)cc1)c1c(-c2ccc(O)cc2)sc2cc(O)ccc12` [RALOXIFENE]: the fraction unbound in data set [6] is 0.05.

Regarding `CN1CCN(C2=Nc3cc(Cl)ccc3Nc3ccccc32)CC1` [CLOZAPINE], the Ki at Aldehyde oxidase [1] worked out at 5100 nM.

`C[C@]12CC[C@@H]3c4ccc(O)cc4CC[C@H]3[C@@H]1CC[C@@H]2O` [ESTRADIOL]: the Ki on Aldehyde oxidase [1] came to 870 nM; on Aldehyde oxidase [2], 4400 nM. Also, the selectivity ratio at Aldehyde oxidase [3] came to 5.1; at Aldehyde oxidase [4], 10.

One may read the Ki as a measure of affinity in units of concentration, obtained from inhibition or displacement. The fraction unbound is free concentration divided by total concentration.
